Measured values from patent US8669378B2, “Process for synthesizing epicconone analogs” (Universite de Rouen, priority 2009, dated 2014).

Assays:
[1] = water and lipid bilayers; cited from earlier work
[2] = Photobleaching of stained standard proteins in gel under UV transilluminator; assay type: physicochemical; settings: protein-stained gel, first-order exponential decay fit, deduced from FIG. 1
Experimental: The compounds were dissolved at 10 mg/mL in DMSO. The stock solutions obtained were diluted to 1 mg/mL in water and divided into 100 μL aliquots for storage. All the products and aliquots were stored at −80° C.
Standard proteins (SDS labeling kit-low molecular weight sold by GE, 17-0446-01) were diluted in an LDS buffer (250 μL Invitrogen 4×LDS buffer, 100 μL of 1 M DDT, 650 μL of water) to create serial dilutions ranging from 128 ng/STI band to 125 pg/STI band.
5 μL of each protein solution were loaded onto NuPAGE® Novex® 12% bis-tris gels (1.0 mm thick, 12 wells, Invitrogen NP0342BOX). The gels were subjected to a current of 150 V for approximately 65 minutes using MES buffer (50 mM MES, 50 mM tris, 1 mM EDTA, 0.1% SDS, pH 7.3) so that the buffer front arrives just up to the gel. After eluting the dye, the gels were fixed for 1 to 17 hours (100 mL of fixing solution with 15% EtOH (v/v) and 1% citric acid) in individual lanes. The fixing solution used was replaced with fresh solution one hour after staining. The gels were stained for 1 hour in 50 mL of sodium borate buffer at 100 mM (pH 10.9) containing either […] of LavaPurple gel dye (Fluorotechnics; LP-011005) or one of the test compounds (50 μL for a 1 mg/mL solution). The gels were treated with 100 mL of 15% ethanol and then washed with 100 mL of fixing solution for 30 minutes.
Imaging was performed using a Typhoon Trio imager (excitation: 532 nm, emission filter: 610BP30, 540 PMT, resolution: 100 μm) using a normal sensitivity. The recorded image corresponds to the scan at time zero. The gels were then placed in a UV transilluminator for 60, 146, 240, 330, 630 and 990 seconds (total exposure time), a Typhoon scanner image being recorded between each exposure. The volumes of the bands were analyzed using the Image-Quant TL software, and all the band volumes were normalized with phosphorylase B. The photobleaching was analyzed by graphically representing the band volumes as a function of the exposure time (GraphPad Prism v4 software) and by fitting the curve to a first-order exponential decay to determine a pseudofirst-order rate constant.
FIG. 1 represents the decrease of the normalized residual signal of compounds (Ii), (Ij), (Ik), (In) and (Io) according to the invention and of epicocconone.
From this FIGURE, the half-life times of the compounds may be deduced: […]

[3] = cited from earlier work
[4] = Absorbance of the adducts with butylamine in acetonitrile; assay type: physicochemical; settings: Bioconjugated molecule (BuNH2) in CH3CN
Experimental: (§1) Apparatus: • Acetonitrile: VWR HPLC quality • Micropipette: 5 μl, 10 μl, 200 μl, 1000 μl, • Eppendorf: Safe lock tube PCR • UV cuvette: Varian-Quartz 10 mm thick • Fluorescence cuvette: Hellma-Quartz 10 mm thick • Vortex: Bender & Hobein-Genie 2 • Centrifuge: Baky Bug • Absorbance spectrophotometer: Varian-Cary 50 scan • Fluorescence spectrophotometer: Varian-Cary Eclipse • Thermostated bath: Varian-Cary single cell peltier accessory Stock Solution:
(§2) Approximately exactly 1 to 2 mg of compound Ia-Io are weighed out in a 1.5 mL Eppendorf tube. The stock solutions are then prepared by adding exactly 1 mL of acetonitrile and the Eppendorf tubes are then stored protected from light.
30 μl of stock solution are placed in a 1.5 mL Eppendorf tube. At room temperature, 10 μl (or 30 μl in the case of Ik) of a 0.15 M solution of butylamine/acetonitrile are added and the medium is stirred by vortex and then centrifuged. After diluting to 1 mL by adding 960 μl of acetonitrile (or 940 μl in the case of Ik), the clear solution is transferred into a UV cuvette and then made up to 2 mL with acetonitrile. The analysis is then performed after producing a “blank” spectrum with a pure acetonitrile solution.

[5] = Fluorescence of the adducts with butylamine in acetonitrile; assay type: physicochemical; design: Δ Stokes: unit not given here; settings: Bioconjugated molecule (BuNH2) in CH3CN
Experimental: as §1, §2
Two protocols were implemented for the fluorescence tests. • For compounds Ii-Ik: 125 μL of the preceding solution (absorbance solution) are diluted to 1.25 mL by adding 1125 μl of acetonitrile to a fluorescence cuvette. The analysis is then performed on the fluorescence spectrophotometer by excitation at the respective maximum-absorption wavelengths. • For compounds Ia-Ih and Il-Io: 1250 μl of the preceding solution (absorbance) are placed in a fluorescence cuvette. The analysis is then performed on the fluorescence spectrophotometer by excitation at the respective maximum-absorption wavelengths.

Half-life time [2]: 11.3 min
λ UV (nm), second maximum ([4]; longer-wavelength absorption maximum, used for excitation): 515 nm
λ UV (nm), first maximum ([4]; shorter-wavelength absorption maximum): 388 nm
Δ Stokes ([5]; emission minus excitation wavelength): 95
λ fluo (λ excitation) (nm) ([5]; excitation at maximum-absorption wavelength): 610 nm
Intensity normalized to 50 μM ([5]; fluorescence intensity): 3950
SMILES: C/C=C/C=C/C=C/C(=O)/C=C(\O)C1=C2C=C3C[C@@H](CO)OC=C3C(=O)[C@@]2(C)OC1=O [epicocconone, 5,6-dihydro-3-[(1Z,4E,6E,8E)-1-hydroxy-3-oxo-1,4,6,8-decatetraenyl]-6-hydroxymethyl-9a-methyl-2H-furo[3,2g][2]benzopyran-2,9-(9aH)-dione, reference compound]
solubility [1]: good solubility both in water and in lipid bilayers
fluorescence emission wavelength of enamine adduct ([3]; adduct with amine functions, UV-Vis radiation, for example at 395 nm or 520 nm): about 600 nm
Stokes shift ([3]; difference between absorption and emission wavelength): about 100 nm
